Reference: US20240158425A1, “MODIFIED ADENINES” (NUCLERA LTD, priority 2021, published 2024)

Columns and labels:
Format in all cases: physicochemical
[1] = Stability in Oxime Removal Solution (1×ORS) buffer, monitored by LC/MS; conditions: 1×ORS buffer (methoxyamine), 24 h at 37 deg C.
Method: (§1) Analytical LC/MS was performed on the Agilent 1100 Series system. Nucleosides were analysed using gradient of acetonitrile in 20 mM NH4OAc, pH 4.5. The 1 M stock solution of NH4OAc, pH 4.5 was prepared by dissolving NH4OAc (g) in H2O and adjusted to pH 4.5 with acetic acid. This was further diluted with water to the concentrations required for the chromatography.
(§2) Column: Ascentis Express C18 15×4.6 mm, 5 μm; Column temperature 30° C., Flow rate 1 mL/min, UV detection 254 nm.
Stock solution of ORS buffer (2×) was prepared from methoxyamine hydrochloride (60 mg, 0.71 mmol), water (MilliQ) (200 uL), pH 5.5 sodium acetate (200 uL) and 10 M sodium hydroxide (53.4 uL) and water (1.4 mL). 2-chloro-2′-deoxyadenosine (1 mg) was dissolved in milliQ water (0.5 mL) and 2×ORS (0.5 mL) was added. The resultant solution was incubated at 37 deg C. and the stability was monitored at intervals using LC/MS. […] 2. Stability of 2-fluoro-2′-deoxyadenosine in ORS Buffer
2-fluoro-2′-deoxyadenosine (1 mg) was dissolved in milliQ water (0.5 mL) and 2×ORS (0.5 mL) was added. The resultant solution was incubated at 37 deg C. and the stability was monitored at intervals using LC/MS.

[2] = Stability of 2-halogenated 2′-deoxyadenosines and 2′-deoxyadenosine in NDS buffer (sodium nitrite, pH 5.5), LC/MS; conditions: for Reaction in NDS buffer (products formed; deaminated nucleoside): LC/MS
Method: as §1, §2
2 M sodium acetate pH 5.5 buffer was made from sodium acetate trihydrate (2.72 g) made up to 9.5 mL with water, then titrated to pH 5.5 with acetic acid, and finally made up to 10 mL. NDS buffer was made from acetate solution (3.934 mL), sodium nitrite (380 mg, 5.5 mmol) and water (3.934 mL), then adjusted to pH 5.5 with 10 M sodium hydroxide (˜1 drop required). 2-chloro-2′-deoxyadenosine (0.5 mg), 2-fluoro-2′-deoxyadenosine (0.5 mg) and 2′-deoxyadenosine (0.5 mg) as a control were respectively placed in three vials and each dissolved in 1 mL solution of NDS buffer. The stability was monitored at intervals using LC/MS.

[3] = Stability of 8-aza-adenosine and 2′-deoxyadenosine in NDS buffer, LC/MS; conditions: for Reaction in NDS buffer (products formed; deaminated nucleoside): LC/MS
Method: A solution of NDS made up from sodium nitrite, sodium acetate pH 5.5) and titrated to pH 5.5 with 10 M NaOH was obtained (2 mL).
1 mL aliquots of this solution were added to 8-aza-2′-dA (0.5 mg) and 2′-dA (0.5 mg, as a control to compare how additional N atom at 8 position of nucleobase affects reactivity NH2—C6 group with NDS) and analysed at intervals using LC/MS.

[4] = buffer, 24 h, 0.5 mg/mL, pH 5.5
[5] = buffer, 48 h, 0.5 mg/mL, pH 5.5
[6] = buffer, 120 h, 0.5 mg/mL, pH 5.5

In (nucleoside peak area %) ([3]; 24 h)	Remaining nucleoside, peak area % ([3]; 24 h)	In (nucleoside peak area %) ([3]; 96 h)	Remaining nucleoside, peak area % ([3]; 96 h)	In (nucleoside peak area %) ([3]; 120 h)	Remaining nucleoside, peak area % ([3]; 120 h)	In (nucleoside peak area %) ([3]; 146 h)	Remaining nucleoside, peak area % ([3]; 146 h)	SMILES	Reaction in NDS buffer (products formed; deaminated nucleoside) ([2]; NDS buffer)	Reaction in NDS buffer (products formed; deaminated nucleoside) [3]	also measured
								Nc1nc(Cl)nc2c1ncn2[C@H]1C[C@H](O)[C@@H](CO)O1 [2-Cl-dA, 2-chloro-2′-deoxyadenosine]	react in the NDS buffer giving rise to 1 product		Stability in 1×ORS buffer (formation of products) [1]: did not lead to any products; In (remaining nucleoside) ([2]; NDS buffer, 24 h): 4.599; Remaining nucleoside ([2]; NDS buffer, 24 h): 99.42%; In (remaining nucleoside) ([2]; NDS buffer, 48 h): 4.592; Remaining nucleoside ([2]; NDS buffer, 48 h): 98.66%; In (remaining nucleoside) ([2]; NDS buffer, 120 h): 4.57; Remaining nucleoside ([2]; NDS buffer, 120 h): 96.54%; Deamination in NDS buffer, times slower than 2′-dA ([2]; NDS buffer, same conditions as 2′-dA): 5.5 ×
4.592	98.65 peak area %	4.538	93.49 peak area %	4.519	91.74 peak area %	4.5	90 peak area %	Nc1ncnc2c1nnn2[C@@H]1O[C@H](CO)[C@@H](O)[C@H]1O [8-aza-A, 8-aza-adenosine]		react in the NDS buffer giving rise to 1 product	Deamination in NDS buffer, times slower than 2′-dA ([3]; same conditions as 2′-dA): 3.2 ×
4.545	94.15 peak area %	4.352	77.6 peak area %	4.29	73 peak area %	4.248	70 peak area %	Nc1ncnc2c1ncn2[C@H]1C[C@H](O)[C@@H](CO)O1 [dA, 2′-deoxyadenosine]	react in the NDS buffer giving rise to 1 product	react in the NDS buffer giving rise to 1 product	In (remaining nucleoside) [2, 4]: 4.571; Remaining nucleoside [2, 4]: 96.66%; In (remaining nucleoside) [2, 5]: 4.531; Remaining nucleoside [2, 5]: 92.85%; In (remaining nucleoside) [2, 6]: 4.416; Remaining nucleoside [2, 6]: 82.77%
